Counter-ions that a name gives are not always drawn.

The first data set concerns interferon (α) (IFN-α). As to the kind of experiment: Cytokine induction in human cells: IFN-α secreted by PBMC (ELISA). It is filed as cell-based. The following applies: 18 to 24 hours, lowest tested concentration inducing response over 20 pg/mL, median if more than one experiment, read-out: Minimum Effective Concentration (μM) IFN. The text has this: (§1) An in vitro human blood cell system is used to assess cytokine induction. Activity is based on the measurement of interferon (α) and tumor necrosis factor (α) (IFN-α and TNF-α, respectively) secreted into culture media as described by Testerman et. al. in “Cytokine Induction by the Immunomodulators Imiquimod and S-27609”, Journal of Leukocyte Biology, 58, 365-372 (September, 1995).
(§2) Whole blood from healthy human donors is collected by venipuncture into vacutainer tubes or syringes containing EDTA. Peripheral blood mononuclear cells (PBMC) are separated from whole blood by density gradient centrifugation using HISTOPAQUE-1077 (Sigma, St. Louis, Mo.) or Ficoll-Paque Plus (Amersham Biosciences Piscataway, N.J.). Blood is diluted 1:1 with Dulbecco's Phosphate Buffered Saline (DPBS) or Hank's Balanced Salts Solution (HBSS). Alternately, whole blood is placed in Accuspin (Sigma) or LeucoSep (Greiner Bio-One, Inc., Longwood, Fla.) centrifuge frit tubes containing density gradient medium. The PBMC layer is collected and washed twice with DPBS or HBSS and re-suspended at 4×10^6 cells/mL in RPMI complete. The PBMC suspension is added to 96 well flat bottom sterile tissue culture plates containing an equal volume of RPMI complete media containing test compound.
(§3) The compounds are solubilized in dimethyl sulfoxide (DMSO). The DMSO concentration should not exceed a final concentration of 1% for addition to the culture wells. The compounds are generally tested at concentrations ranging from 30-0.014 μM. Controls include cell samples with media only, cell samples with DMSO only (no compound), and cell samples with reference compound.
(§4) The solution of test compound is added at 60 μM to the first well containing RPMI complete and serial 3 fold dilutions are made in the wells. The PBMC suspension is then added to the wells in an equal volume, bringing the test compound concentrations to the desired range (usually 30-0.014 μM). The final concentration of PBMC suspension is 2×10^6 cells/mL. The plates are covered with sterile plastic lids, mixed gently and then incubated for 18 to 24 hours at 37° C. in a 5% carbon dioxide atmosphere.
(§5) Following incubation the plates are centrifuged for 10 minutes at 1000 rpm (approximately 200×g) at 4° C. The cell-free culture supernatant is removed and transferred to sterile polypropylene tubes. Samples are maintained at −30 to −70° C. until analysis. The samples are analyzed for IFN-α by ELISA and for TNF-α by IGEN/BioVeris Assay.
IFN-α concentration is determined with a human multi-subtype colorimetric sandwich ELISA (Catalog Number 41105) from PBL Biomedical Laboratories, Piscataway, N.J. Results are expressed in pg/mL.
(§6) In total, the data output of the assay consists of concentration values of TNF-α and IFN-α(y-axis) as a function of compound concentration (x-axis).
Analysis of the data has two steps. First, the greater of the mean DMSO (DMSO control wells) or the experimental background (usually 20 pg/mL for IFN-α and 40 pg/mL for TNF-α) is subtracted from each reading. If any negative values result from background subtraction, the reading is reported as “*”, and is noted as not reliably detectable. In subsequent calculations and statistics, “*”, is treated as a zero. Second, all background subtracted values are multiplied by a single adjustment ratio to decrease experiment to experiment variability. The adjustment ratio is the area of the reference compound in the new experiment divided by the expected area of the reference compound based on the past 61 experiments (unadjusted readings). […] The reference compound used is 2-[4-amino-2-ethoxymethyl-6,7,8,9-tetrahydro-α,α-dimethyl-1H-imidazo[4,5-c]quinolin-1-yl]ethanol hydrate (U.S. Pat. No. 5,352,784; Example 91) and the expected area is the sum of the median dose values from the past 61 experiments.
The minimum effective concentration is calculated based on the background-subtracted, reference-adjusted results for a given experiment and compound. […]
On the technique in general: In an ELISA, binding on a coated surface is turned into a signal by an enzyme label.
In the case of `Nc1nc2cc(-c3cccnc3)ccc2c2c1nc(CO)n2CCCCNC(=O)C1CCCC1` [Example 42], the minimal effective concentration was 0.12 µM.

The next data set relates to tumor necrosis factor (α) (TNF-α). As to the kind of experiment: Cytokine induction in human cells: TNF-α secreted by PBMC (ORIGEN M-Series immunoassay). In kind it is cell-based. Conditions: 18 to 24 hours, lowest tested concentration inducing response over 40 pg/mL, median if more than one experiment, read-out: Minimum Effective Concentration (μM) TNF.
Description: as §1, §2, §3, §4, §5
The TNF-α concentration is determined by ORIGEN M-Series Immunoassay and read on an IGEN M-8 analyzer from BioVeris Corporation, formerly known as IGEN International, Gaithersburg, Md. The immunoassay uses a human TNF-α capture and detection antibody pair (Catalog Numbers AHC3419 and AHC3712) from Biosource International, Camarillo, Calif. Results are expressed in pg/mL.
as §6
Analysis of the data has two steps. First, the greater of the mean DMSO (DMSO control wells) or the experimental background (usually 20 pg/mL for IFN-α and 40 pg/mL for TNF-α) is subtracted from each reading. If any negative values result from background subtraction, the reading is reported as “*”, and is noted as not reliably detectable. In subsequent calculations and statistics, “*”, is treated as a zero. Second, all background subtracted values are multiplied by a single adjustment ratio to decrease experiment to experiment variability. The adjustment ratio is the area of the reference compound in the new experiment divided by the expected area of the reference compound based on the past 61 experiments (unadjusted readings). […]
`Nc1nc2cc(-c3cccnc3)ccc2c2c1nc(CO)n2CCCCNC(=O)C1CCCC1` [Example 42]: the minimal effective concentration amounted to 3.33 µM.

Tested on in another data set: not given
Assay: not given
Settings: not given
`Nc1nc2cc(-c3cccnc3)ccc2c2c1nc(CO)n2CCCCNC(=O)C1CCCC1` [Example 42]: the melting point fell in the range of 241 to 242 °C.

`CS(=O)(=O)N1CCC(Cn2c(CO)nc3c(N)nc4cc(-c5cncc(CO)c5)ccc4c32)CC1` (as salt: HBr) (hydrate or solvate) [Example 44] showed a melting point greater than 300 °C. Molecule `CC(C)(O)Cn1c(CO)nc2c(N)nc3cc(-c4ccc(F)nc4)ccc3c21` (hydrate or solvate) [Example 37] came in with a melting point of 111 to 114 °C. The molecule `CS(=O)(=O)NCCCCn1c(CO)nc2c(N)nc3cc(-c4cccnc4)ccc3c21` (hydrate or solvate) [Example 38] came in with a melting point of 188 to 190 °C. For `Nc1nc2cc(-c3cccc(C(=O)N4CCCC4)c3)ccc2c2c1nc(CO)n2CC1CCOCC1` [Example 139, [4-Amino-7-[3-(pyrrolidin-1-ylcarbonyl)phenyl]-1-(tetrahydro-2H-pyran-4-ylmethyl)-1H-imidazo[4,5-c]quinolin-2-yl]methanol], the melting point is 281 to 284 °C.

As for `Cc1cccc(-c2ccc3c(c2)nc(N)c2nc(CCO)n(CCCN4CCCC4=O)c23)c1` (hydrate or solvate) [Example 47], the melting point fell in the range of 218 to 221 °C. The same measure, in the same setting: then `Nc1nc2cc(-c3cncc(CO)c3)ccc2c2c1nc(CO)n2CC1CCCCC1` (hydrate or solvate) [Example 49], with 166 to 170 °C; and `CC(C)C(=O)NCCCCn1c(CO)nc2c(N)nc3cc(-c4cccnc4)ccc3c21` (hydrate or solvate) [Example 43], with 225 to 227 °C. `CC(C)(O)Cn1c(CO)nc2c(N)nc3cc(-c4cccnc4)ccc3c21` (hydrate or solvate) [Example 51]: the melting point fell in the range of 141 to 143 °C. `CC(C)NC(=O)N1CCC(Cn2c(CO)nc3c(N)nc4cc(-c5cccnc5)ccc4c32)CC1` [Example 36]: the melting point lay within 182 to 184 °C.

`CS(=O)(=O)N1CCC(Cn2c(CO)nc3c(N)nc4cc(-c5cccnc5)ccc4c32)CC1` [Example 34] came in with a melting point of 196 to 198 °C. On the same count and under the same terms, then `Nc1nc2cc(-c3cccc(C(=O)N4CCOCC4)c3)ccc2c2c1nc(CO)n2CC1CCCCC1` (as salt: HCl) (hydrate or solvate) [Example 50], with 260 to 264 °C; and `Nc1nc2cc(-c3cccnc3)ccc2c2c1nc(CO)n2CCCCNC(=O)NC1CCCC1` (hydrate or solvate) [Example 41], with 225 to 227 °C. For the molecule `CCCC(=O)NCCCCn1c(CO)nc2c(N)nc3cc(-c4cccnc4)ccc3c21` (hydrate or solvate) [Example 40], the melting point is 211 to 212 °C. `CC(C)C(=O)N1CCC(Cn2c(CO)nc3c(N)nc4cc(-c5cccnc5)ccc4c32)CC1` (hydrate or solvate) [Example 35]: the melting point was 154 to 157 °C.

Consider `CCCNC(=O)NCCCCn1c(CO)nc2c(N)nc3cc(-c4cccnc4)ccc3c21` (hydrate or solvate) [Example 39], for which the melting point was in the range of 206 to 209 °C. The molecule `Nc1nc2cc(-c3cccnc3)ccc2c2c1nc(CO)n2CC1CCOCC1` [Example 32, [4-Amino-7-pyridin-3-yl-1-(tetrahydro-2H-pyran-4-ylmethyl)-1H-imidazo[4,5-c]quinolin-2-yl]methanol] returned a melting point of 260 to 262 °C. On to `CC(C)NC(=O)N1CCC(Cn2c(CO)nc3c(N)nc4cc(-c5cncc(CO)c5)ccc4c32)CC1` (as salt: HBr) [Example 46], for which the melting point was greater than 300 °C.

By melting point is commonly meant the temperature, or range, at which the solid turns liquid.

Source of the values: US8158794B2, “Hydroxyalkyl substituted imidazoquinoline compounds and methods” (3M Innovative Properties Company, priority 2005, dated 2012).
